Experimental data from publication PMC10855066, “Anti-Inflammatory and Antioxidant Pyrrolo[3,4-d]pyridazinone Derivatives Interact with DNA and Bind to Plasma Proteins—Spectroscopic and In Silico Studies” (International Journal of Molecular Sciences, 2024).

Test system: T1, α1-acid-glycoprotein (AAG); orosomucoid
T1 construct: gene ORM1; docking only used 3kq0
Test: intrinsic fluorescence quenching, excitation […] nm
Format: binding
Details: double-log; 297 K, 0.01 M phosphate buffer pH 7.4, 1.0 µM AAG, ligand stock in EtOH, inner filter corrected

Row | Compound | Binding / Kb.10^4 [dm^3.mol^-1]
1 | CCCCn1c(C)c2c(OCc3nn(CN4CCC(O)(c5ccc(Cl)cc5)CC4)c(=S)o3)nn(C)c(=O)c2c1C [compound 2, pyrrolo[3,4-d]pyridazinone derivative 2] | 4.57 × 10^4 dm^3·mol^−1
2 | Cc1c2c(OCc3nn(CN4CCN(c5ccccc5)CC4)c(=S)o3)nn(C)c(=O)c2c(C)n1-c1ccccc1 [compound 3, pyrrolo[3,4-d]pyridazinone derivative 3] | 4.57 × 10^4 dm^3·mol^−1
3 | CCCCn1c(C)c2c(OCc3nn(CN4CCN(c5ccccc5)CC4)c(=S)o3)nn(C)c(=O)c2c1C [compound 1, pyrrolo[3,4-d]pyridazinone derivative 1] | 3.09 × 10^4 dm^3·mol^−1

Results, then the compound that gave them:

Row | Binding / Kb.10^4 [dm^3.mol^-1] | Compound
4 | 1.41 × 10^4 dm^3·mol^−1 | Cc1c2c(OCc3nn(CN4CCC(O)(c5ccc(Cl)cc5)CC4)c(=S)o3)nn(C)c(=O)c2c(C)n1-c1ccccc1 [compound 5, pyrrolo[3,4-d]pyridazinone derivative 5]
5 | 5.01 × 10^4 dm^3·mol^−1 | Cc1c2c(OCc3nn(CN4CCN(c5ccc([N+](=O)[O-])cc5)CC4)c(=S)o3)nn(C)c(=O)c2c(C)n1-c1ccccc1 [compound 4, pyrrolo[3,4-d]pyridazinone derivative 4]
